The values below come from ChEMBL document CHEMBL2346530, “Discovery of non-peptide inhibitors of Plasmepsin II by structure-based virtual screening” (Bioorg Med Chem Lett, 2013).

Assay [1] has as its target Plasmepsin II (Plasmodium falciparum) (UniProt P46925). The experiment in a line: Inhibition of recombinant Plasmodium falciparum plasmepsin 2 expressed in Escherichia coli using DABCYL-Glu-Arg-Nle-Phe-Leu-Ser-Phe-Pro-EDANS as substrate at 10 uM incubated for 40 mins prior to substrate addition measured after 10 mins by FRET-based fluorometric analysis.
Another assay has as its target Plasmepsin II (Plasmodium falciparum, UniProt P46925). Nature of the assay: Inhibition of recombinant Plasmodium falciparum plasmepsin 2 expressed in Escherichia coli using DABCYL-Glu-Arg-Nle-Phe-Leu-Ser-Phe-Pro-EDANS as substrate incubated for 40 mins prior to substrate addition measured after 10 mins by FRET-based fluorometric analysis.

Chain of Plasmepsin II (P46925 whole entry): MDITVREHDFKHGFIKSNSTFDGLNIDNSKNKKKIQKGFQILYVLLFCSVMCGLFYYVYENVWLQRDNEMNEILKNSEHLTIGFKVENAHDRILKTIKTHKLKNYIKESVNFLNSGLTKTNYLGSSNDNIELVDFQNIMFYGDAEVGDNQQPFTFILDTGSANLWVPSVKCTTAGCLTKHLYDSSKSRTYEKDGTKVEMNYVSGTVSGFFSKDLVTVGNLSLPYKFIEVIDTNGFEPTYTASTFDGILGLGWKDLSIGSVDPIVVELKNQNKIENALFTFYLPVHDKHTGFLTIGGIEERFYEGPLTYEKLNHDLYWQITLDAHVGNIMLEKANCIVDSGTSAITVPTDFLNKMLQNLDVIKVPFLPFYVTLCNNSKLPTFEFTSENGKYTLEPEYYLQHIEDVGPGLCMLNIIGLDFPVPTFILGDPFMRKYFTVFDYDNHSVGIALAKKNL
Chain of Plasmepsin II (Plasmodium falciparum) (P46925 125-453 limits assumed): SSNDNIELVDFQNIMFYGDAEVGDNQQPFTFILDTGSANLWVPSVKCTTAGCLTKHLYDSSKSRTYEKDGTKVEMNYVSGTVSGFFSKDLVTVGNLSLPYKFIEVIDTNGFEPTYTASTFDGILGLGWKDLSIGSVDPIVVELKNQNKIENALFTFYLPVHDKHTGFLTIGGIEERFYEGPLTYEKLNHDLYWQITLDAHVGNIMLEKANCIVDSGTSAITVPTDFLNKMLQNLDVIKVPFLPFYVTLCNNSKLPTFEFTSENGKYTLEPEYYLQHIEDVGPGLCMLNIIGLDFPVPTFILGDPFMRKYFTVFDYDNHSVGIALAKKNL

With `OC(CNCc1ccccc1)Cn1c2ccc(Cl)cc2c2cc(Cl)ccc21` (stereo not given), the inhibition in assay [1] stood at 52%. Further, on Plasmepsin II, the half-inhibitory concentration (IC50) came out at 9.47 µM.

Take `N=C(S)NN/C(=C\c1nc(-c2ccccn2)cc2ccccc12)c1ccc(Cl)cc1`: the inhibition in assay [1] was 55%. Besides, at Plasmepsin II, the IC50 turned out to be 6.45 µM.

Regarding `Cc1ccc(S(=O)(=O)Nc2ccccc2CNc2cnc3ccccc3c2)cc1`, the inhibition in assay [1] was determined as 60.6%. Besides, the IC50 on Plasmepsin II amounted to 7 µM.

As for `Cc1ccccc1N/C(=N\N=C/c1ccc2ccc3ccc(/C=N\N=C(/Nc4ccccc4C)c4ccccn4)nc3c2n1)c1ccccn1`, in assay [1], the inhibition is 67.7%. Moreover, on Plasmepsin II, the IC50 turned out to be 4.62 µM.

On to `O=C(CN(c1cccc(Br)c1)S(=O)(=O)c1ccccc1)Nc1ccc(CSc2ccccc2)cc1`, for which the inhibition in assay [1] worked out at 54.7%. Moreover, on Plasmepsin II, the IC50 came to 8.99 µM.

As usually defined, the inhibition is how much of the control response was suppressed. A word on the IC50: it is the concentration at which inhibition is half-maximal.
